According to patent publication US12063902B2, “Method of regenerating cannabis” (The State of Israel, Ministry of Agriculture & Rural …, priority 2018, dated 2024):

Key:
[1] = system: Cannabis leaf segment explants; test: Somatic embryogenesis in liquid culture; format: cell-based, Cannabis sativa; conditions: liquid Gamborg B5 medium
Method: Leaf segments from tissue culture grown on the solid medium (1.5 cm diameter and 4-5 cm long) of two Cannabis cultivars (108 and 201) were used. Innermost leaf whorls were cut obliquely (0.5-1.0 cm), injured with sharp scalpel blade in order to achieve callus initiation. Leaf segment, were used as explant for inoculation on MS medium (Murashige and Skoog 1962) supplemented with 2,4-D (4.0 mg/L) and kinetin [Kin] (0.5 mg/L). After 2-3 weeks the cultures were incubated at 25±2 C at 70-80% humidity in dark in liquid Gamborg B5 medium supplemented with 6% sucrose and different plant hormones (Table 1). The media was refreshed every three weeks.
Leaf segments from tissue culture from two different genotypes (108 and 201) have been used as primary explants. The explants were chopped to small pieces (as less as 0.5 mm) and cultivated in liquid Gamborg B5 medium supplemented with 6% sucrose and different plant hormones (Table 1). The media were refreshed every three weeks.
The initiated suspension cultures along with embryos in globular stage (FIGS. 12A-12B) were sub-cultured in the same medium for three weeks. Part of the cultures was transferred to B5 Gamborg media, supplemented with different hormones/chemicals (Table 2) to provoke embryo elongation and further development. The cultures were transferred to fresh media every three weeks.

Cannabis explants = test: Shoot regeneration in tissue culture with "regeneration premium treatment"; format: cell-based, Cannabis sativa
Method: Regeneration from Cannabis plant material using tissue culture, germinated leaves, cotyledons and hypocotyls were used for regeneration. The plants were placed on a petri dish containing 20 ml regeneration media using premium treatment with cuticle nicking enzymes: MS salt mixture, supplemented with 100 mg/l myo-inositol, 1 mg/l thiamine-HCl, 2% sucrose (w/v) at pH 5.7) with and without 5 ml pectic enzymes reaction mixture (0.25 ml 10% enzyme fungal mix of pectin and cutinase 0.25 ml 200 mM Tris-HCl).
Three youngest expanding leaves isolated from 3 to 4 weeks old plants were with and placed on regeneration medium with cuticle nicking enzymes (Murashige and Skoog (MS) medium salt mixture, containing 0.05-5.0 μM thidiazuron, supplemented with 100 mg/l myo-inositol, 1 mg/l thiamine-HCl, 2% sucrose (w/v) at pH 5.7, with 5 ml pectic enzymes reaction mixture (0.25 ml 10% cuticle nicking enzyme in 0.25 ml 200 mM Tris-HCl). The cultures were kept for 7 days in low light intensity (2.5 mmol/m2 s) followed by exposure to high light intensity (40 mmol/m2 s) at 25° C., in a 16/8 h photoperiod. Leaf explants were examined after 14 and 21 days and the percentage of explant producing shoots were calculated. […]

Cannabis shoots = test: Rooting (root induction) of shoots; format: cell-based, Cannabis sativa L.
Method: Shoot was cultivated individually in a tube with root induction (RI) medium composed of half strength MS medium (½MS) supplemented with 100 mg/l myo-inositol, 1 mg/l thiamine-HCl, 90 mg/l phloroglucinol, 2% sucrose (w/v), 0.25% activated charcoal (AC), with or without IBA (at different concentrations (0, 1, 2 mg/l) and 0.8% agar. Soil mixture was moistened by soaking the rooting cylinders in liquid RI medium supplemented with either 0, 1, or 2 mg/l IBA. Each treatment consisted of 10 shoots and results were scored after 4 weeks. Each experiment was repeated three times.
To obtain root induction, different concentrations of IBA were examined. The shoots were placed in a tube containing rooting medium containing 0, 1, or 2 mg/l IBA. Using this method with 2 mg/l IBA, about 85% of the shoots formed roots. However, only low percentage of these plants successfully acclimatized under greenhouse conditions. According to the second approach, shoots were cultured directly in rooting cylinders. After 4 weeks, 100% root formation was achieved, independently of the concentration of auxin used (FIGS. 5A-5C). These plants had better hardening and underwent easier acclimatization in greenhouse conditions. In-vitro clonal propagation, rooting and acclimatized plantlet production was established for 10 different Cannabis cultivars. […]

How did the “amount of somatic embryos generated” value ([1]; gyratory shaker at dark) turn out when `CC(C)=CCNc1ncnc2nc[nH]c12` [2iP] was run?
The value was “Low amounts of embryos”.

How did the shoot growth (Cannabis explants; 7.0 μM gibberellic acid added to medium containing 0.5 μM thidiazuron) turn out when `C=C1C[C@]23C[C@@]1(O)CC[C@H]2[C@@]12C=C[C@H](O)[C@@](C)(C(=O)O1)[C@H]2[C@@H]3C(=O)O` [gibberellic acid] was run?
Its shoot growth is “slightly increased shoot growth”.

`O=C(Nc1ccccc1)Nc1ccnc(Cl)c1` [CPPU] was tested. Which somatic embryo initiation ([1]; 10 mg/l, 6% sucrose) did it give?
The somatic embryo initiation was “essential for the embryo initiation”.

`O=C(Nc1ccccc1)Nc1cnns1` [thidiazuron] was tested. Which “quality and quantity of regenerates” value (Cannabis explants; 0.5 μM thidiazuron, media treatment with cuticle nicking enzymes) did it give?
The value was “better”.

For `O=C(O)CCCc1c[nH]c2ccccc12` [IBA, indol-3-butyric acid], which root formation (Cannabis shoots; shoots cultured directly in rooting cylinders, after 4 weeks, independently of the concentration of auxin (0, 1, 2 mg/l IBA)) is on record?
The root formation was 100%.

And the shoots formed roots (Cannabis shoots; tube containing rooting medium, 2 mg/l IBA)?
Its shoots formed roots is “about 85%”.
